# Experimental data taken from ChEMBL document CHEMBL1201862, “PubChem BioAssay data set” (2004).
# Active and inactive are the calls of the source.
# Experiments:
# Cytochrome P450 2C19 = Cytochrome P450 2C19 (Homo sapiens, UniProt P33261); test: Cytochrome panel assay with activity outcomes. Panel member name: p450-cyp2c19 Compounds with AC50 equal or less than 10 uM are considered active; assay type: functional
# Cytochrome P450 2C9 = Cytochrome P450 2C9 (Homo sapiens, UniProt P11712)
# [1] = test system: Streptococcus sp. 'group A'; test: Streptococcus pyogenes SK(-)GAS viability under kanamycin – luminescence, BacTiterGlo, confirmation, counter-screen for streptokinase expression inhibitor project, dose response (AID 1900); assay type: functional, organism-based
# Streptococcus = test: GAS UMAA2166 growth inhibition – luminescence, BacTiterGlo, counter-screen for streptokinase expression inhibitor project, dose response (AID 1915); assay type: functional, organism-based;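 also: potency for reduction of bacterial viability or growth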
# [2] = Luminescence Cell-Based Dose Retest to Confirm Inhibitors of Cancer Stem Cells. [Related pubchem assays (depositor defined):AID2717, AID2721]; assay type: functional; settings: Homo sapiens
# [3] = Trypanosoma cruzi growth suppression in host cells – NIH3T3 host cells, beta-gal luminescence, confirmation (AID 2044); assay type: functional, cell-based;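 also: intracellular parasites grown in NIH/3T3 mouse fibroblasts as host cells; luminescent beta-galactosidase reporter signal from transgenic T. cruzi replicating inside host cells; inhibitors lower the luminescence signal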
# [4] = NIH3T3 cell viability loss – ATP luminescence, mouse fibroblasts, counter-screen, dose response (AID 2010); assay type: functional, cell-based;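 also: cells exposed to compound for about 90 hours before reading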
# Cytochrome P450 2D6 = Cytochrome P450 2D6 (Homo sapiens, UniProt P10635);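 also: CYP2D6 member of a cytochrome P450 panel assay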
# Cytochrome P450 2D6, sequence (P10635 whole entry): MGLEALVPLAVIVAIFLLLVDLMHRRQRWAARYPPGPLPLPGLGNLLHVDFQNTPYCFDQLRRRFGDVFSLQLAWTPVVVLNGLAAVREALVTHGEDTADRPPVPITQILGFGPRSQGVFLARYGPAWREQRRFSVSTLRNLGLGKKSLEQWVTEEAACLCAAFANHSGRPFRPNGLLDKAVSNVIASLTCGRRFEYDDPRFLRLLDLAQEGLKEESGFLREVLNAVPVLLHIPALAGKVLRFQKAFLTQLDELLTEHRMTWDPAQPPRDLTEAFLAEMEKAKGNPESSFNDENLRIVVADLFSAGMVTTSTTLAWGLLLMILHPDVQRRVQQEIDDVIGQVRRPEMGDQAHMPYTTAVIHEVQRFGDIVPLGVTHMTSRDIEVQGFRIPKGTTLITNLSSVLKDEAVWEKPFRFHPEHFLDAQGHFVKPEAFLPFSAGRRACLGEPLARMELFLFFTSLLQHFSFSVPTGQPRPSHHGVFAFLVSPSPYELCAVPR
# [5] = molecular target: T1, Heat shock factor protein 1 (Mus musculus, UniProt P38532); test: decrease of HSF1-responsive luciferase luminescence – cell-based, NIH3T3, dose retest, confirmation (AID 2382); assay type: functional;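 also: NIH3T3 fibroblasts with HSF1-driven luciferase reporter stressed by proteasome inhibitor MG132; luminescence from HSF1-driven luciferase expression after 8 hours of MG132 stress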
# T1 sequence (P38532 whole entry): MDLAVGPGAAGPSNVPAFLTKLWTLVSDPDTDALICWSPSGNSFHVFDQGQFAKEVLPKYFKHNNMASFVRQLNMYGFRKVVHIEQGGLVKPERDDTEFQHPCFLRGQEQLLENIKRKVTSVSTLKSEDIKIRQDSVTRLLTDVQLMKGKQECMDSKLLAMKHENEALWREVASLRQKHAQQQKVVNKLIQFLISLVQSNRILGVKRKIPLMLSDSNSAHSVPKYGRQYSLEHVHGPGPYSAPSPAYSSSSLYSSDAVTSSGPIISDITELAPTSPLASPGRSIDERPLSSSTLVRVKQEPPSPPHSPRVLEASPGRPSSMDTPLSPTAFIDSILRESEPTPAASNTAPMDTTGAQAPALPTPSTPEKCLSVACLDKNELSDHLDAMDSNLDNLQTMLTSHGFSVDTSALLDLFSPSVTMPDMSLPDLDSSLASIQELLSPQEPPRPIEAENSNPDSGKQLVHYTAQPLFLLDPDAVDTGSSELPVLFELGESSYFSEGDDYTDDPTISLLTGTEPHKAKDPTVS
# Cytochrome P450 2C19, sequence (P33261 whole entry): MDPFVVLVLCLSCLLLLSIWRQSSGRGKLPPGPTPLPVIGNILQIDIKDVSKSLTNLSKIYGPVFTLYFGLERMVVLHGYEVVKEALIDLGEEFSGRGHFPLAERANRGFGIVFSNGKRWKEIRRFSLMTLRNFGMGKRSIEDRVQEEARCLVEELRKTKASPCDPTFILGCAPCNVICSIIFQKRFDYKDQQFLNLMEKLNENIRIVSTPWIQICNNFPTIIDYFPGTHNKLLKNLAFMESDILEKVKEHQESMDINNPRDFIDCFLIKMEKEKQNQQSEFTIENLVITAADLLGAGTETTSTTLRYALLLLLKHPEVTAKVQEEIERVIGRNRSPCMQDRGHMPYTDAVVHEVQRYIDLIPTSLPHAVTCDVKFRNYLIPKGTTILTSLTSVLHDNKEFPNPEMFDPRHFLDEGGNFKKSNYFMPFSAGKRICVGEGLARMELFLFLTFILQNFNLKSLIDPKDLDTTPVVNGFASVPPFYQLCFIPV
# Cytochrome P450 2C9, sequence (P11712 whole entry): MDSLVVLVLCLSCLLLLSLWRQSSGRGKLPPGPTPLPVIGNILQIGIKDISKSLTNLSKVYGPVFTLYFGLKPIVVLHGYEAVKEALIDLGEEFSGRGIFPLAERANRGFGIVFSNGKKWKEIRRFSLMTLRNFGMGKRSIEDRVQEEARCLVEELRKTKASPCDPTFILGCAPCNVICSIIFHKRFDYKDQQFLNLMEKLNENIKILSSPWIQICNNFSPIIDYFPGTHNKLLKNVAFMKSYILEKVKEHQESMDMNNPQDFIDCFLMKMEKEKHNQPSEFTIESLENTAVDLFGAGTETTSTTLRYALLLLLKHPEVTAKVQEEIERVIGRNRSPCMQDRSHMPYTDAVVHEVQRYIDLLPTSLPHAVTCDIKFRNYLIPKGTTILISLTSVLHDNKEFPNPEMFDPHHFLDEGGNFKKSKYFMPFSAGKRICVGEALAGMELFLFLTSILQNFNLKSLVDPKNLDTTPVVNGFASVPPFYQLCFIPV
smiles,measurement,setting,value
Cc1cc(N)c2ccccc2[n+]1CCCCCCCCCCCCCC[n+]1c(C)cc(N)c2ccccc21,AC50,Cytochrome P450 2C19; read-out: AC50,31.6 µM (inconclusive)
same,AC50,Cytochrome P450 2C9,39.8 µM (inconclusive)
CCOc1ccc(-n2cc(-c3ccccc3)c3c(S)ncnc32)cc1,EC50,[1],6.95 µM (active)
same,EC50,Streptococcus,14.9 µM (active)
O=c1c2ccccc2nc(/C=C/c2ccccc2F)n1-c1ccccc1O,AC50,[2],2.4 µM (active)
CCOC(=O)C(C(=O)NCc1ccc(C)cc1)c1ncc(C(F)(F)F)cc1Cl (stereo not given),AC50,Cytochrome P450 2C19; read-out: AC50,11.2 µM (inconclusive)
COc1cccc(CC2(CO)CCCN(Cc3ccc(C)s3)C2)c1 (stereo not given),EC50,[3],0.635 µM (active)
same,EC50,[4],> 30 µM (not active)
C[C@@H](C(=O)Nc1ccc2ccccc2c1)[C@@H]1C[C@@]1(C)[C@@H](NC(=O)c1ccncc1Cl)c1ccccc1,AC50,Cytochrome P450 2C9,39.8 µM (inconclusive)
COc1ccccc1CNc1nc(-c2cccc(C#N)c2)nc2ccccc12,AC50,Cytochrome P450 2C9,1 µM (inconclusive)
CN1CCN(NC(=O)c2cn(-c3ccccc3)nc2-c2cccc(Br)c2)CC1,EC50,[3],2.81 µM (active)
same,EC50,[4],4.99 µM (active)
CC(=O)OC[C@@H]1O[C@@H](O/N=C2/C[C@@H](O)[C@@H](O)[C@@H]3[C@@H]4C(=O)N(C[C@@H]5CCCO5)C(=O)[C@H]4CC[C@@H]23)[C@H](OC(C)=O)[C@H](OC(C)=O)[C@@H]1OC(C)=O,AC50,Cytochrome P450 2D6,3.98 µM (inconclusive)
CC1CC2=C(N=C(S)NC2c2cccc(F)c2)/C(=C/c2cccc(F)c2)C1 (stereo not given),EC50,[3],1.83 µM (active)
same,EC50,[4],> 60 µM (inconclusive)
Cc1ccc(NS(=O)(=O)c2cc3c4c(cccc4c2)C(=O)NC3=O)cc1C,AC50,[2],5.69 µM (active)
C[C@@]12CCC=C[C@H]1[C@H](c1ccc(F)c(/C=C/c3ccccc3)c1)N(Cc1ccccc1)C2=O,AC50,[2],2.84 µM (active)
CCCc1nnc(NC(=O)CCC(=O)NCc2ccccc2OC)s1,AC50,Cytochrome P450 2C19; read-out: AC50,11.2 µM (inconclusive)
O=c1c(-c2cccs2)nc2cnc(N3CCNCC3)nc2n1-c1ccccc1,AC50,Cytochrome P450 2D6,20 µM (inconclusive)
same,AC50,Cytochrome P450 2C9,20 µM (inconclusive)
CCCCCc1nnc(NC(=O)C(=O)OCC)s1,AC50,Cytochrome P450 2C9,28.2 µM (inconclusive)
CCC(=O)Nc1ccc(C(=O)OCC(=O)c2ccc(C)c([N+](=O)[O-])c2)cc1,AC50,Cytochrome P450 2C19; read-out: AC50,11.2 µM (inconclusive)
same,AC50,Cytochrome P450 2D6,35.5 µM (inconclusive)
CCc1ccc(-c2cc(C(F)(F)F)n3nc(C(=O)Nc4c(C)nn(Cc5ccccc5C)c4C)cc3n2)s1,EC50,[3],2.21 µM (active)
same,EC50,[4],> 60 µM (inconclusive)
CCOc1ccc(CSC2=NCCN2)cc1Cl,EC50,[3],1.1 µM (active)
same,EC50,[4],> 60 µM (not active)
CCOc1cc(CNCCCN2CCOCC2)ccc1OCC(=O)NC(C)(C)C,EC50,[3],0.87 µM (active)
same,EC50,[4],> 60 µM (not active)
Cn1c(Sc2ccc(-c3cccnc3)n2C)ccc1-c1cccnc1,AC50,Cytochrome P450 2D6,3.16 µM (inconclusive)
same,AC50,Cytochrome P450 2C9,3.98 µM (inconclusive)
CCOc1ccc(CN2CCN(Cc3cc4ccccc4[nH]3)CC2CCO)cc1 (stereo not given),EC50,[3],0.371 µM (active)
same,EC50,[4],> 60 µM (not active)
Cc1ccc(CCN2CC(C(=O)NC3CCCC3)CC2=O)cc1 (stereo not given),AC50,Cytochrome P450 2C19; read-out: AC50,14.1 µM (inconclusive)
CSc1[nH]c(-c2ccc(C)cc2)nc1S(=O)(=O)c1ccccc1,AC50,Cytochrome P450 2C9,11.2 µM (inconclusive)
COc1cccc2c1C(=N)c1c(O)c3c(c(O)c1C2=O)C[C@](O)(C(C)=O)C[C@@H]3O[C@H]1C[C@H](N)[C@@H](O)[C@H](C)O1,AC50,Cytochrome P450 2D6,3.16 µM (inconclusive)
COc1cccc(C(=O)Nc2ccc(NC(=O)C3CC=CCC3C(=O)O)cc2)c1 (stereo not given),EC50,[5],> 195 µM (not active)
OCCNc1nc(NCCC2=CCCCC2)nc(N2CCOCC2)n1,AC50,Cytochrome P450 2C19; read-out: AC50,15.8 µM (inconclusive)
CCn1nccc1C(=O)Nc1nc2ccccc2n1CCN1CCCCC1,AC50,Cytochrome P450 2D6,4.47 µM (inconclusive)
O[C@@H](c1cc([C@@]23C[C@H]4CC[C@@H]2C[C@H](C4)C3)nc2c(Cl)cc(Cl)cc12)[C@@H]1CCCCN1,AC50,Cytochrome P450 2C19; read-out: AC50,0.794 µM (inconclusive)
same,AC50,Cytochrome P450 2D6,3.16 µM (inconclusive)
CN(C)c1ncc2nc(CCc3ccccc3)c(=O)n(CCc3ccccc3)c2n1,AC50,Cytochrome P450 2D6,7.94 µM (inconclusive)
O=C(NNc1ccccc1Br)C(=O)n1ccc2ccccc21,AC50,[2],3.46 µM (active)
COc1ccccc1C(=O)Nc1ccnn1C1CCN(Cc2cnc(N(C)C)s2)CC1,EC50,[3],0.852 µM (active)
same,EC50,[4],> 60 µM (not active)
COc1ccc(N2CCN(c3nc(Nc4ccc(C)c(F)c4)nc(N4CCCC4)n3)CC2)cc1,EC50,[3],3.17 µM (active)
same,EC50,[4],> 60 µM (not active)
Cc1noc(C)c1C(=O)N1CCC2(CCN(Cc3cc(C(F)(F)F)cc(C(F)(F)F)c3)CC2)CC1,AC50,Cytochrome P450 2D6,39.8 µM (inconclusive)
CC(=O)c1ccc(-c2ccc([C@H]3[C@H]4C=CC[C@@H](C)[C@@H]4C(=O)N3Cc3ccccc3)c(F)c2)cc1,AC50,[2],5.57 µM (active)
N=C(NOC(=O)COc1ccc2ccccc2c1Br)c1ccncc1,EC50,[3],2.84 µM (active)
same,EC50,[4],> 60 µM (not active)
Cn1c(=O)n(Cc2ccc(F)cc2)c(=O)c2c1nc1n2CCCN1C1CCCCC1,AC50,[2],3.33 µM (active)
O=C(CC(Nc1ccc(Cl)cc1Cl)C(=O)O)c1ccccc1 (stereo not given),EC50,[5],< 0.16 µM (active)
FC(F)(F)c1ccc(CNCCc2ccc3c(c2)OCO3)cc1,EC50,[3],0.308 µM (active)
same,EC50,[4],> 60 µM (not active)
O=C(CSc1nnc(-c2ccccn2)n1Cc1ccco1)Nc1ccc2c(c1)OCO2,AC50,Cytochrome P450 2C9,15.8 µM (inconclusive)
Clc1ccccc1CNCC1CCC(CNCc2ccccc2Cl)CC1 (stereo not given),AC50,Cytochrome P450 2C9,1.26 µM (inconclusive)
COc1ccccc1-c1cc(NCc2cccnc2)ncn1,AC50,Cytochrome P450 2D6,20 µM (inconclusive)
CCc1nc2c(c(SC)nn2-c2ccccc2)c(N)c1C(=O)OC,AC50,Cytochrome P450 2C19; read-out: AC50,25.1 µM (inconclusive)
same,AC50,Cytochrome P450 2C9,1.12 µM (inconclusive)
CC(NC(=O)CN=C(S)N(Cc1ccccc1)Cc1cccnc1)c1ccccc1 (stereo not given),EC50,[3],0.805 µM (active)
same,EC50,[4],10.8 µM (active)
Oc1[nH]c2ccccc2c1N=Nc1ccc(C(F)(F)F)cn1,AC50,Cytochrome P450 2C19,inconclusive
O=S(=O)(NCC(c1cccnc1)N1CCN(Cc2ccccc2)CC1)c1cc(F)ccc1F (stereo not given),EC50,[3],0.677 µM (active)
same,EC50,[4],> 60 µM (not active)
Nc1nnc(SCC(=O)OCC(=O)NC2CCCCC2)s1,AC50,[2],> 195 µM (inactive)
CC(C)C12CC[C@@]3(CC[C@H]4[C@@](C)(CCC[C@]4(C)C(=O)O)[C@@H]3C1)[C@@H](CN)C2,AC50,Cytochrome P450 2C9,1.26 µM (inconclusive)
COc1ccc(C2NCCc3c2[nH]c2ccccc32)cc1CN1CCc2cc(OC)c(OC)cc2C1C (stereo not given),EC50,[3],1.98 µM (active)
same,EC50,[4],> 60 µM (not active)
COC(=O)c1ccccc1NC(=O)CSc1nnc(C(CO)NC(=O)c2ccccc2)n1C (stereo not given),EC50,[5],> 195 µM (not active)
O=C(CSc1ccc(Cl)cc1)Nc1cccc(NC(=O)c2ccco2)c1,AC50,Cytochrome P450 2C9,5.01 µM (inconclusive)
Cc1cccc(Cl)c1OCCCCn1ccnc1,EC50,[3],1.62 µM (active)
same,EC50,[4],> 60 µM (not active)
COc1ccccc1CCn1c(=O)c(-c2cccc(F)c2)nc2cncnc21,AC50,Cytochrome P450 2D6,39.8 µM (inconclusive)
COc1cc(-c2ccc3c(=O)c4ccccc4n(C)c3c2)cc(OC)c1OC,AC50,[2],9.62 µM (active)
C[C@@H]1C[C@H](OC(=O)[C@@H](O)c2ccccc2)CC(C)(C)N1C,AC50,Cytochrome P450 2D6,15.8 µM (inconclusive)
O=C(CCNS(=O)(=O)c1cccc2nsnc12)NCc1cccs1,EC50,[5],> 195 µM (not active)
Cc1ccnc(NS(=O)(=O)c2ccc(NC(=O)C3CCCNC3=O)cc2)n1 (stereo not given),AC50,Cytochrome P450 2C19,inconclusive
Oc1cc(O)c2c(c1)O[C@@H](c1ccc(O)c(O)c1)[C@H](O[C@@]1(c3cc(O)c(O)c(O)c3)Oc3cc(O)cc(O)c3[C@H](O)[C@@H]1O)C2,AC50,Cytochrome P450 2C19; read-out: AC50,3.98 µM (inconclusive)
same,AC50,Cytochrome P450 2C9,6.31 µM (inconclusive)
CCOc1cc(/C=C\c2nc(O)nc(O)c2[N+](=O)[O-])ccc1OC(C)CC (stereo not given),AC50,[2],8.11 µM (active)
Cc1noc(C)c1C(=O)N1CCC[C@@]2(CCN(c3ccccn3)C2)C1,AC50,Cytochrome P450 2D6,6.31 µM (inconclusive)
Cc1[nH]n(-c2ccccc2)c(=O)c1/C=N/NC(=O)c1ccccc1F,EC50,[1],3.54 µM (active)
same,EC50,Streptococcus,6.72 µM (active)
COc1ccc(/C(C)=N/NC(=O)c2ccc(CSc3cccc4cccnc34)cc2)cc1OC,AC50,Cytochrome P450 2C9,1.26 µM (inconclusive)
Cc1ccc(-c2csc(N/N=C/c3ccco3)n2)cc1,AC50,Cytochrome P450 2C9,20 µM (inconclusive)
COc1ccc(OC)c(/N=C2\SCCCN2C(=O)c2ccc(N3C(=O)CCC3=O)cc2)c1,EC50,[5],> 195 µM (not active)
CC(C)c1c(CN(C)[C@@H](C)Cc2ccccc2)n(C)n(-c2ccccc2)c1=O [FAMPROFAZONE],AC50,Cytochrome P450 2C19; read-out: AC50,15.8 µM (inconclusive)
same,AC50,Cytochrome P450 2D6,10 µM (inconclusive)
COc1cc2nc(N3CCN(C(=O)OCc4ccccc4)[C@H](C(=O)NC(C)(C)C)C3)nc(N)c2cc1OC [L-765314],AC50,Cytochrome P450 2D6,31.6 µM (inconclusive)
